In ChEMBL document CHEMBL1148849, “Synthesis and structure evaluation of a novel cantharimide and its cytotoxicity on SK-Hep-1 hepatoma cells” (2007):
Calls of active or inactive are those of the source. The calls are words filed in the database; no cut-off is given here.

Columns and labels:
SK-HEP1 [1] = experiment: Cytotoxicity against human SK-HEP-1 cells assessed as 50 percent MTS reduction after 48 hrs; assay type: functional
SK-HEP1 [2] = experiment: Effect on apoptosis in human SK-HEP-1 cells assessed as increase in caspase 3 activation at 25 ug/mL after 48 hrs; assay type: functional, cell-based
SK-HEP1 [3] = experiment: Effect on apoptosis in human SK-HEP-1 cells at 25 ug/mL after 48 hrs by TUNEL method; assay type: functional, cell-based
SK-HEP1 [4] = experiment: Cytotoxicity against human SK-HEP-1 cells assessed as inducing loss of colony formation by MTS assay; assay type: functional, cell-based
SK-HEP1 [5] = experiment: Cytotoxicity against human SK-HEP-1 cells assessed as inducing cell shrinkage after 48 hrs by MTS assay; assay type: functional, cell-based
LNCaP = experiment: Apoptotic effect on LNCap cells assessed as induction of shrinkage at 25 ug/mL after 48 hrs; assay type: functional, cell-based; details: Homo sapiens
MCF7 = experiment: Apoptotic effect on MCF7 cells assessed as induction of shrinkage at 25 ug/mL after 48 hrs; assay type: functional, cell-based; details: Homo sapiens

| SMILES | Activity (SK-HEP1 [1]) | Activity (SK-HEP1 [2]) | Activity (SK-HEP1 [3]) | Activity (SK-HEP1 [4]) | Activity (SK-HEP1 [5]) | Activity (LNCaP) | Activity (MCF7) |
| --- | --- | --- | --- | --- | --- | --- | --- |
| Cc1ccc2nc(N3C(=O)[C@@]4(C)[C@H]5CC[C@H](O5)[C@@]4(C)C3=O)sc2c1 | 12.5 µg/mL | Active | Active | Active | Active |  |  |
| COc1ccc2nc(N3C(=O)[C@@]4(C)[C@H]5CC[C@H](O5)[C@@]4(C)C3=O)sc2c1 | 6.25 µg/mL | Active | Active | Active | Active | Active | Active |
